The source of these data is ChEMBL document CHEMBL1158916, “2-O-alpha-D-galactopyranosyl glycerol hexaacetate from Ruellia brittoniana” (J Nat Prod, 1990).

The data set deals with Rattus norvegicus. In words: Toxicity in anesthetized rat assessed as increase in mean arterial pressure at 100 ug/kg. The class given is organism-based, Artery. Conditions: in vivo, 0.1 mg/kg.

`CC(=O)OCC(COC(C)=O)O[C@H]1O[C@H](COC(C)=O)[C@H](OC(C)=O)[C@H](OC(C)=O)[C@H]1OC(C)=O`: the Activity entry is “Toxic”.
